# Columns and labels:
# Assay type in all cases: cell-based
# [1] = molecular target: T1, human prostanoid FP receptor (Homo sapiens, UniProt P43088); assay: FLIPR Ca2+ signaling PG antagonist assay, FP stable cell line; conditions: HEK-293 EBNA cells, human recombinant FP, no exogenous G-protein; standard agonist 17-phenyl-PGF2α
# T1 construct: expressed in transfected cells
# Outline: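 Stable HEK-293 EBNA lines (DP1 with chimeric Gqs, EP3 with Gqi, EP1 and FP without exogenous G protein) were Fluo-4AM-loaded and pretreated 4.5 min at 37 °C with compound (0.1–30 μM). Agonist (BW 245C for DP1, PGE2 for EP1/EP3, 17-phenyl-PGF2α for FP) was then added at 10^−11–10^−5 M. Peak Ca2+ fluorescence was taken relative to agonist at 10^−6 M.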
# [2] = molecular target: T2, human prostanoid EP2 receptor (Homo sapiens, UniProt P43116); assay: FLIPR Ca2+ signaling PG antagonist assay, EP2 stable cell line; conditions: HEK-293 EBNA cells, human recombinant EP2 with chimeric Gqs; standard agonist PGE2
# T2 construct: expressed in transfected cells
# T2 sequence (P43116 whole entry): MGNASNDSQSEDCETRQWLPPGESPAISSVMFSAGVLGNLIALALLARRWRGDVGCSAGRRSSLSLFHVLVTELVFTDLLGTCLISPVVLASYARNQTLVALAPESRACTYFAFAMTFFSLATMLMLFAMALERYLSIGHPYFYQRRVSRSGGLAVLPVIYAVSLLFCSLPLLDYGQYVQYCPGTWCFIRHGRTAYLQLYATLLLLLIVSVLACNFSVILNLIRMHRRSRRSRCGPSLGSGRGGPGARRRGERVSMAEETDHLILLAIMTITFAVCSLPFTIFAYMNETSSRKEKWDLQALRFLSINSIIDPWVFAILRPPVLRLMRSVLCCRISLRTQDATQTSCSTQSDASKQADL
# Protocol: (§1) The above compounds were tested for PG antagonist activity as follows using human recombinant prostanoid receptor (DP1, EP1-4, FP, IP and TP) stable cell lines: In order to measure the response of Gs and Gi coupled prostanoid receptors as a Ca^2+ signal, chimeric G protein cDNAs were used. Stable cell lines over-expressing human prostanoid DP1, EP1-4, FP, IP, and TP receptors were established as follows:
# (§2) Briefly, human prostanoid DP1, EP2, and EP4 receptor cDNAs were co-transfected with chimeric Gqs cDNA containing a haemagglutanin (HA) epitope; human prostanoid EP3 receptors were co-transfected with chimeric Gqi-HA; human EP1, FP, IP, and TP receptor cDNAs were expressed with no exogenous G-proteins. Gqs and Gqi chimeric cDNAs (Molecular Devices, Sunnyvale, Calif., U.S.A.), as well as cDNAs of prostanoid receptors, were cloned into a pCEP4 vector with a hygromycin B selection marker. Transfection into HEK-293 EBNA (Epstein-Barr virus nuclear antigen) cells was achieved by the FuGENE 6 transfection Reagent (Roche Applied Science, Indianapolis, Ind., USA). Stable transfectants were selected according to hygromycin resistance. Because Gqs and Gqi contained an HA epitope, G-protein expression was detected by Western blotting analysis using anti-mouse HA monoclonal antibody and horseradish peroxidase (HRP)-conjugated secondary antibody, while functional expression of prostanoid receptors was detected by FLIPR screening (Matias et al., 2004). These stable cell lines were validated using previously published antagonists at 10 μM against serial dilutions of standard agonists by FLIPR functional assays for Ca^2+ Signaling (as described below).
# (§3) Ca^2+ signaling studies were performed using a FLIPR TETRA system (Molecular Devices, Sunnyvale, Calif., USA) in the 384-format. This is a high-throughput instrument for cell-based assays to monitor Ca^2+ signaling associated with GPCRs and ion channels. Cells were seeded at a density of 5×10^4 cells/well in BioCoat poly-D-lysine coated, black wall, clear bottom 384-well plates (BD Biosciences, Franklin lakes, NJ, USA) and allowed to attach overnight in an incubator at 37° C. The cells were then washed twice with HBSS-HEPES buffer (Hanks' balanced salt solution without bicarbonate and phenol red, 20 mM HEPES, pH 7.4) using an ELx405 Select CW Microplate Washer (BioTek, Winooski, Vt., USA). After 60 min of dye-loading in the dark using the Ca^2+-sensitive dye Fluo-4AM (Invitrogen, Carlsbad, Calif., USA), at a final concentration of 2×10^−6M, the plates were washed 4 times with HBSS-HEPES buffer to remove excess dye and leaving 50 μl of buffer in each well. The plates were then placed in the FLIPR TETRA instrument and allowed to equilibrate at 37° C. Compounds were added in a 25 μl volume to each well to give final concentrations of 0.1 μM, 0.3 μM, 1 μM, 3 μM, 10 μM, and 30 μM; or 0.067 μM, 0.1 μM, 0.2 μM, 0.3 μM, 0.67 μM, and 1 μM for cells over-expressing TP receptors. After 4.5 minutes, a 7-point serial dilution of the standard agonist for the corresponding receptor, in a 25 μl volume was injected at the final concentrations from 10^−11M to 10^−5M in 10-fold serial dilution increments for cells expressing human recombinant DP1, EP1, EP2, EP3, EP4, FP, and IP receptors. The dose range for the standard agonist for human recombinant TP receptors was from 10^−12M to 10^−6M. HBSS-HEPES buffer was used as the negative control for the standard agonists. Cells were excited with LED (light emitting diode) excitation at 470-495 nm and emission was measured through an emission filter at 515-575 nm. Assay plates were read for 3.5 minutes using the FLIPR^TETRA. The peak increase in fluorescence intensity was recorded for each well. On each plate, negative controls, dose response of positive controls, and co-treatments of antagonist-agonist for each dose were in triplicates. Standard agonists were as follows: DP=BW 245C, EP1-EP4=PGE2, FP=17-phenyl-PGF2α, IP=Cicaprost, and TP=U-46619. […]
# [3] = molecular target: T3, human prostanoid EP3 receptor (Homo sapiens, UniProt P43115); assay: FLIPR Ca2+ signaling PG antagonist assay, EP3 stable cell line; conditions: HEK-293 EBNA cells, human recombinant EP3 with chimeric Gqi; standard agonist PGE2
# T3 construct: expressed in transfected cells
# T3 sequence (P43115 1-390): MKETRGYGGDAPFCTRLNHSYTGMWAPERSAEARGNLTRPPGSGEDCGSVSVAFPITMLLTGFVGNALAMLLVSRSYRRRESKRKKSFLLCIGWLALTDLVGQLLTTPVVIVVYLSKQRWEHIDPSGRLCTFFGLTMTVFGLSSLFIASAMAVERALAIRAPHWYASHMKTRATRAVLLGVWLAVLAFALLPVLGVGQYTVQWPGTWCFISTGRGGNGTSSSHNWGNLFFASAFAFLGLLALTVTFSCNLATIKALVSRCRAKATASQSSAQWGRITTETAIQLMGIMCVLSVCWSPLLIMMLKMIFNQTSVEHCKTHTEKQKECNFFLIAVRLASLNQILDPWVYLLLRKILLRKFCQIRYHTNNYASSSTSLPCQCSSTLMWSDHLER
# Protocol: as §1, §2, §3
# [4] = molecular target: T4, human prostanoid EP4 receptor (Homo sapiens, UniProt P35408); assay: FLIPR Ca2+ signaling PG antagonist assay, EP4 stable cell line; conditions: HEK-293 EBNA cells, human recombinant EP4 with chimeric Gqs; standard agonist PGE2
# T4 construct: expressed in transfected cells
# T4 sequence (P35408 whole entry): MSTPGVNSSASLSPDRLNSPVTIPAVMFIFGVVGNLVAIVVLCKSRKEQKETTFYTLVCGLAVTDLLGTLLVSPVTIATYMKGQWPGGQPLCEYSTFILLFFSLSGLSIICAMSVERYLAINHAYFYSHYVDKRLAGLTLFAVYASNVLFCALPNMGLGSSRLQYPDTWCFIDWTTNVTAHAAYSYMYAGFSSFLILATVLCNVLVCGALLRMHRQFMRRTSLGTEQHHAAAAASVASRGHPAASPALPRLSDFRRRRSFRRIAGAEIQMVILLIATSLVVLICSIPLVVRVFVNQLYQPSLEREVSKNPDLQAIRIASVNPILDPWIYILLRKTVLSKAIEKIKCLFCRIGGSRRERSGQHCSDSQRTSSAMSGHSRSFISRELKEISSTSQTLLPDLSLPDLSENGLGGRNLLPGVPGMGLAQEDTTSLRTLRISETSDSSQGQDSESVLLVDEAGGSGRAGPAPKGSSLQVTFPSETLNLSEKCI
# Protocol: as §1, §2, §3
# [5] = molecular target: T5, human prostanoid IP receptor (Homo sapiens, UniProt P43119); assay: FLIPR Ca2+ signaling PG antagonist assay, IP stable cell line; conditions: HEK-293 EBNA cells, human recombinant IP, no exogenous G-protein; standard agonist Cicaprost
# T5 construct: expressed in transfected cells
# T5 sequence (P43119 whole entry): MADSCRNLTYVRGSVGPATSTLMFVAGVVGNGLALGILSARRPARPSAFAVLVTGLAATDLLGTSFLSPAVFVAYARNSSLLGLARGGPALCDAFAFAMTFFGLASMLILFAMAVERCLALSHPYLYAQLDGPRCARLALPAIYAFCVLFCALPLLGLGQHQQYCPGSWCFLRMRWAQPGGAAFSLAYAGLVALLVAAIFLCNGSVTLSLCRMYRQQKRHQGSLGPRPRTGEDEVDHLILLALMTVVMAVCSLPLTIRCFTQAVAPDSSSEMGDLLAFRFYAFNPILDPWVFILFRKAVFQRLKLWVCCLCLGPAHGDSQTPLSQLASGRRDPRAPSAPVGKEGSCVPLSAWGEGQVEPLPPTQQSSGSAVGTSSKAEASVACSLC
# Outline: (§4)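 HEK-293 EBNA stable lines; EP2 co-expressed with chimeric Gqs, EP1/IP/TP with no exogenous G protein. Fluo-4AM-loaded cells pretreated 4.5 min at 37 °C with compound (0.1–30 μM; TP 0.067–1 μM), then standard agonist (PGE2, cicaprost, U-46619) 10^−11–10^−5 M (TP 10^−12–10^−6 M); peak fluorescence read 3.5 min, nonlinear regression.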
# [6] = molecular target: T6, human prostanoid TP receptor (Homo sapiens, UniProt P21731); assay: FLIPR Ca2+ signaling PG antagonist assay, TP stable cell line; conditions: HEK-293 EBNA cells, human recombinant TP, no exogenous G-protein; standard agonist U-46619
# T6 construct: expressed in transfected cells
# T6 sequence (P21731 1-343): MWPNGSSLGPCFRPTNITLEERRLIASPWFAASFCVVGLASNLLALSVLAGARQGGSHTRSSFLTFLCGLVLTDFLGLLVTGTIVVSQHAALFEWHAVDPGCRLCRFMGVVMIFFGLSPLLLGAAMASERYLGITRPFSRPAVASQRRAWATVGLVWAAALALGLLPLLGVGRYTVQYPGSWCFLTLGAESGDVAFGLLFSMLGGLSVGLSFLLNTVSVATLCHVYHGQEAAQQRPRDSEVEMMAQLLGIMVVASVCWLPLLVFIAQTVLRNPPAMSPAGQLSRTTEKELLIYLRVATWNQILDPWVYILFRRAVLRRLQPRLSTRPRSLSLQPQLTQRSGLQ
# Outline: as §4
# T1 sequence (P43088 whole entry): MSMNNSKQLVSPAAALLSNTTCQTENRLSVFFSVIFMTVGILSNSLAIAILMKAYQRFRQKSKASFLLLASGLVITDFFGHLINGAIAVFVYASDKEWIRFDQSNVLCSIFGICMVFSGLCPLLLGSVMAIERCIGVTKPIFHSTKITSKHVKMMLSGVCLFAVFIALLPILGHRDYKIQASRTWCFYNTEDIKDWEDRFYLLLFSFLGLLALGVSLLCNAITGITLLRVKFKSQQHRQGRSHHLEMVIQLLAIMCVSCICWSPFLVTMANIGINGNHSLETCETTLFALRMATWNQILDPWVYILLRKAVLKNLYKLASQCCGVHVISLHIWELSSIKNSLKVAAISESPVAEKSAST
"IP (Kb, PG antagonist activity) [5]","TP (Kb, PG antagonist activity) [6]",SMILES,Kb [1] [nM],Kb [2] [nM],Kb [3] [nM],Kb [4] [nM],Kb [5] [nM],Kb [6] [nM]
,,"Cc1nn(Cc2cc(OC(F)(F)F)ccc2OCC(C)C)c2ccc(C(=O)O)cc12 [Example 22, 1-(2-Isobutoxy-5-Trifluoromethoxy-Benzyl)-3-Methyl-1H-Indazole-5-Carboxylic Acid]",140,≥ 10000,≥ 10000,350,6000,5
,,"CC(C)COc1ccc(Br)cc1Cn1ccc2nc(C(=O)O)ccc21 [Example 73, 1-(5-Bromo-2-Isobutoxy-Benzyl)-1H-Pyrrolo[3,2-B]Pyridine-5-Carboxylic Acid]",430,≥ 10000,≥ 10000,≥ 10000,9000,8
,,"CCC(CC)COc1ccc(OC(F)(F)F)cc1Cn1cc(C)c2cc(C(=O)O)ccc21 [Example 77, 1-[2-(2-Ethyl-Butoxy)-5-Trifluoromethoxy-Benzyl]-3-Methyl-1H-Indole-5-Carboxylic Acid]",9600,9200,≥ 10000,1500,≥ 10000,1100
,,"CCC(CC)COc1ccc(Cl)cc1Cn1ccc2cc(C(=O)O)ccc21 [Example 1, 1-[5-Chloro-2-(2-Ethyl-Butoxy)-Benzyl]-1H-Indole-5-Carboxylic Acid]",560,8700,5200,70,2200,150
,,"CCC(CC)COc1ccc(Cl)cc1Cn1nc(C)c2cc(C(=O)O)ccc21 [Example 23, 1-[5-Chloro-2-(2-Ethyl-Butoxy)-Benzyl]-3-Methyl-1H-Indazole-5-Carboxylic Acid]",170,7100,1200,50,500,1
,,"CCC(CC)COc1ccc(Cl)cc1Cn1cc2c(C(=O)O)cccc2n1 [Example 39, 2-[5-Chloro-2-(2-Ethyl-Butoxy)-Benzyl]-2H-Indazole-4-Carboxylic Acid]",≥ 10000,≥ 10000,5500,1600,4900,110
,,"Cc1nn(Cc2cc(Br)ccc2OCC2(C)CC2)c2ccc(C(=O)O)cc12 [Example 28, 1-[5-Bromo-2-(1-Methyl-Cyclopropylmethoxy)-Benzyl]-3-Methyl-1H-Indazole-5-Carboxylic Acid]",70,9200,2220,40,1530,7
,,"CCC(CC)COc1ccc(Cl)cc1Cn1nc(C)c2cc(C(=O)O)cnc21 [Example 60, 1-[5-Chloro-2-(2-Ethyl-Butoxy)-Benzyl]-3-Methyl-1H-Pyrazolo[3,4-B]Pyridine-5-Carboxylic Acid]",2500,7500,5100,150,630,410
,,"CCC(CC)COc1ccc(Br)cc1Cn1ccc2ccc(C(=O)O)cc21 [Example 70, 1-[5-Bromo-2-(2-Ethyl-Butoxy)-Benzyl]-1H-Indole-6-Carboxylic Acid]",≥ 10000,≥ 10000,≥ 10000,6000,≥ 10000,320
PAg,Ag,"O=C(O)c1cccc2c1cnn2Cc1cc(Cl)ccc1OCc1ccc(Cl)cc1 [Example 40, 1-[5-Chloro-2-(4-Chloro-Benzyloxy)-Benzyl]-1H-Indazole-4-Carboxylic Acid]",270,900,≥ 12000,2500,,
,,"CC(C)COc1ccc(Br)cc1Cn1ccc2cc(C(=O)O)cnc21 [Example 72, 1-(5-Bromo-2-Isobutoxy-Benzyl)-1H-Pyrrolo[2,3-B]Pyridine-5-Carboxylic Acid]",25,≥ 10000,≥ 10000,220,2000,3
,,"CC(C)COc1ccc(Br)cc1Cn1cc2cc(C(=O)O)ccc2n1 [Example 17, 2-(5-Bromo-2-Isobutoxy-Benzyl)-2H-Indazole-5-Carboxylic Acid]",2300,≥ 10000,≥ 10000,600,≥ 10000,3300
,,"CCC(CC)COc1ccc(Cl)cc1Cn1ncc2cc(C(=O)O)ncc21 [Example 63, 1-[5-Chloro-2-(2-Ethyl-Butoxy)-Benzyl]-1H-Pyrazolo[3,4-C]Pyridine-5-Carboxylic Acid]",2400,≥ 10000,7400,2500,5000,180
,,"O=C(O)c1ccc2c(cnn2Cc2cc(C(F)(F)F)ccc2OCc2ccc(Cl)cc2)c1 [Example 32, 1-[2-(4-Chloro-Benzyloxy)-5-Trifluoromethyl-Benzyl]-1H-Indazole-5-Carboxylic Acid]",50,≥ 10000,≥ 10000,5000,7400,50
